According to PubChem BioAssay AID1552 (Sanford-Burnham Center for Chemical Genomics, 2009):
The source made the active and inactive calls. How the calls were made is not given here.

Each molecule was assayed against Ubiquitin-conjugating enzyme E2 N (Homo sapiens) (UniProt P61088) (assay: UBE2N binders by NMR, biophysical, purified protein (AID 1552)). Conditions: NMR binding to purified UBE2N.
Sequence of Ubiquitin-conjugating enzyme E2 N (Homo sapiens) (P61088 whole entry, looked up): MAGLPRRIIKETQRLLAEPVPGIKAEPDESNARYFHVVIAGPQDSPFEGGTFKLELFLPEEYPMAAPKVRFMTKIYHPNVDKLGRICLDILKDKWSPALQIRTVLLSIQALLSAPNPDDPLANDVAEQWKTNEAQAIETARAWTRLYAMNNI

Row | SMILES | Kd
1 | Cc1nc2ccccc2c(=O)n1/N=C/c1ccncc1 | > 4 mM (inactive)
2 | CCOC(=O)c1c(C)nc2sccn12 | > 4 mM (inactive)
3 | Cc1cc(NC(=O)c2cnn3cccnc23)no1 | > 4 mM (inactive)
4 | O=C(NCc1ccco1)c1cccc(F)c1 | > 4 mM (inactive)
5 | COC(=O)NCc1cc2cc(Cl)ccc2[nH]1 | > 4 mM (inactive)
6 | CN(C)c1nc(N2CCOCC2)nc(N2CCOCC2)n1 | > 4 mM (inactive)
7 | Cc1ccc(NC(=O)N2CCC(C(N)=O)CC2)cc1 | > 4 mM (inactive)
8 | O=C(Nc1ccc2c(c1)CCC2)c1cnccn1 | > 4 mM (inactive)
9 | Clc1ncc2[nH]cnc2n1 | > 4 mM (inactive)
10 | O=S(=O)(c1cccc(Cl)c1)N1CCCC1 | > 4 mM (inactive)
11 | O=C(/C=C1\SC(=O)NC1=O)NCc1ccccc1 | > 4 mM (inactive)
12 | Cc1cc(NC(=O)CCCn2cnc([N+](=O)[O-])n2)no1 | > 4 mM (inactive)
13 | NCC1COc2ccccc2O1 (configuration not stated) | > 4 mM (inactive)
14 | Cc1cc(C(=O)NCc2ccco2)cs1 | > 4 mM (inactive)
15 | CS(C)=C1C(=O)NC(=O)N(c2ccccc2)C1=O | > 4 mM (inactive)
16 | Cc1nc2ccccc2c(=O)n1CCCO | > 4 mM (inactive)
17 | NC(=O)C1CCN(C(=O)CN2CCc3ccccc32)CC1 | > 4 mM (inactive)
18 | O=C(O)CNCC(O)Cn1c2ccccc2c2ccccc21 (configuration not stated) | > 4 mM (inactive)
19 | Cc1c(O)c(O)cc2c1CC=C1[C@@]2(C)CC[C@@]2(C)C3C[C@](C)(C(=O)O)CC[C@]3(C)CC[C@]12C (some centres not stated) | > 4 mM (inactive)
20 | COC1=CC(C)[C@@H]2C[C@H]3OC(=O)C[C@H]4C(C)=C(OC)C(=O)C([C@@]34C)[C@@]2(C)C1=O (some centres not stated) | > 4 mM (inactive)
21 | COc1ccc2c(c1)OC[C@@H](Cc1ccc(OC)c(OC)c1)[C@H]2O | > 4 mM (inactive)
22 | OCc1snnc1-c1ccccc1 | > 4 mM (inactive)
23 | CC(=O)Nc1ccc(S(=O)(=O)NC(N)=O)cc1 | > 4 mM (inactive)
24 | NC(=O)c1ccc(N=Cc2ccc[nH]2)cc1 | > 4 mM (inactive)

Row | SMILES | Kd
25 | N=C1/C(=C\c2ccco2)C(=O)N=C2SC=NN12 | > 4 mM (inactive)
26 | O=C(c1ccco1)N1CCN(c2ccc(Cl)cc2)CC1 | > 4 mM (inactive)
27 | Cn1cnc2c(Cl)ncnc21 | > 4 mM (inactive)
28 | C=CCNC(=O)c1nn2cccnc2c1Cl | > 4 mM (inactive)
29 | O=C1C2C3C=CC(C3)C2C(=O)N1CCO (configuration not stated) | > 4 mM (inactive)
30 | CC1=[N+]([O-])C2(N)CCc3c(no[n+]3[O-])C2(O)C1 (configuration not stated) | > 4 mM (inactive)
31 | CC12CC[C@H](CC1=O)C2(C)C | > 4 mM (inactive)
32 | CCN1CCc2c(sc(N)c2C#N)C1 | > 4 mM (inactive)
33 | Cc1ccccc1-n1c(-c2cccnc2)n[nH]c1=S | > 4 mM (inactive)
34 | Cc1ccc(N2C(=O)C3C4C=CC(O4)C3C2=O)cc1 (configuration not stated) | > 4 mM (inactive)
35 | COc1cc(C(C)=O)cc(OC)c1O | > 4 mM (inactive)
36 | O=C1NC(=S)N/C1=C\c1cccc([N+](=O)[O-])c1 | > 4 mM (inactive)
37 | O=C(Nc1ccncc1)c1cncc(Br)c1 | > 4 mM (inactive)
38 | Cc1cc(C)cc(C(=O)N2CCC(C(N)=O)CC2)c1 | > 4 mM (inactive)
39 | CC1=C(C(N)=O)C(c2cccs2)C(C(N)=O)=C(C)N1 | > 4 mM (inactive)
40 | NC(=O)CCS(=O)(=O)CCN1CCOCC1 | > 4 mM (inactive)
41 | CC(=O)Nc1cc(C(F)(F)F)ccc1N1CCOCC1 | > 4 mM (inactive)
42 | NC(=O)C1(c2ccccc2)CCOCC1 | > 4 mM (inactive)
43 | COc1ccc2c(c1OC)OC[C@@H](c1ccc(OC)c(OC)c1OC)C2 | > 4 mM (inactive)
44 | Nc1nc2c3ccccc3nc(Cc3ccccc3)n2n1 | > 4 mM (inactive)
45 | Cn1cnc2c(cnn2-c2ccccc2)c1=O | > 4 mM (inactive)
46 | COc1cc(CNC(=O)CCCC/C=C/C(C)C)ccc1O | > 4 mM (inactive)
47 | COC(=O)CSc1nnc(-c2ccc(C(=O)O)cc2)o1 | > 4 mM (inactive)
48 | CCCCCCCCCCCCCCC(C(=O)O)C(O)(CC(=O)OC)C(=O)O (configuration not stated) | > 4 mM (inactive)

Row | SMILES | Kd
49 | CC(C)C1COc2cc3oc(=O)ccc3cc2O1 (configuration not stated) | > 4 mM (inactive)
50 | CC(O)C(=O)N/N=C/c1cccs1 (configuration not stated) | > 4 mM (inactive)
51 | CCNC(=O)CC1Nc2ccccc2NC1=O (configuration not stated) | > 4 mM (inactive)
52 | COCCOc1nc2ccccc2nc1C | > 4 mM (inactive)
53 | Cn1c(SCC(N)=O)nnc1-c1cccnc1 | > 4 mM (inactive)
54 | CC(=O)NCCc1cc2ccc(C)c(C)c2[nH]c1=O | > 4 mM (inactive)
55 | O=C1COc2ccccc2C(=O)N1 | > 4 mM (inactive)
56 | CC1(C)CC(NC(=O)/C=C/C(=O)O)CC(C)(C)N1 | > 4 mM (inactive)
57 | Nc1c(Nc2ccccc2)c2ccccc2oc1=O | > 4 mM (inactive)
58 | CC1CCN(C(=O)c2cc3ccccc3o2)CC1 | > 4 mM (inactive)
59 | Cn1nc(C(=O)Nc2cccnc2)c2ccccc2c1=O | > 4 mM (inactive)
60 | Cc1cn2c(-c3cccnc3)nnc2s1 | > 4 mM (inactive)
61 | COc1c2c(c(CC=C(C)C)c3oc(=O)c(-c4ccc(O)cc4)c(O)c13)OC(C)(C)C=C2 | > 4 mM (inactive)
62 | C/C1=C/CC(C)(C)/C=C/C/C(C)=C/CC1 | > 4 mM (inactive)
63 | Cc1nnc(SCC(=O)N2CCc3ccccc32)s1 | > 4 mM (inactive)
64 | NCc1ccc(S(=O)(=O)O)cc1 | > 4 mM (inactive)
65 | COc1cnn(-c2ccccc2)c(=O)c1N(C)C | > 4 mM (inactive)
66 | NC(=O)c1ccccc1NC(=O)C1CC1 | > 4 mM (inactive)
67 | NCc1cccc2c1OCCCO2 | > 4 mM (inactive)
68 | O=C(Nc1nncs1)Oc1ccccc1 | > 4 mM (inactive)
69 | COc1cccc(-c2nc3ccc(O)cc3c(=O)o2)c1 | > 4 mM (inactive)
70 | O=C(NC1=NCCS1)c1ccc([N+](=O)[O-])cc1Cl | > 4 mM (inactive)
71 | CCC(=O)OC1[C@@H]2CC3=C4CC(=O)O[C@@H](c5ccoc5)[C@]4(C)CCC3C(C)(C2=O)[C@@H](CC(=O)OC)C1(C)C (some centres not stated) | > 4 mM (inactive)
72 | O=C(O)c1ccc(CN2CCOCC2)cc1 | > 4 mM (inactive)

Row | SMILES | Kd
73 | Cc1nnc(-n2cnc3ccccc32)c2ccccc12 | > 4 mM (inactive)
74 | S=C(c1ccc(N2CCOCC2)cc1)N1CCOCC1 | > 4 mM (inactive)
75 | CCn1cnc2scc(-c3ccccc3)c2c1=O | > 4 mM (inactive)
76 | Cc1occc1C(=O)N1CCN(S(C)(=O)=O)CC1 | > 4 mM (inactive)
77 | Nc1nc(-c2ccccc2)ns1 | > 4 mM (inactive)
78 | Nc1cc(C(=O)N2CCCC2)cc(C(=O)N2CCCC2)c1 | > 4 mM (inactive)
79 | CC(C)CCCC(C)[C@H]1CCC2C3CC=C4CC(=O)CC[C@]4(C)C3CC[C@@]21C (some centres not stated) | > 4 mM (inactive)
80 | COc1cccc(/C=C/C(=O)O)c1C(C)C | > 4 mM (inactive)
81 | CC1(C)C(=O)[C@@H]2O[C@@H]2[C@@]2(C)C1C[C@@H](O)[C@]1(C)C2CC[C@@]2(C)[C@H](c3ccoc3)OC(=O)C3OC321 (some centres not stated) | > 4 mM (inactive)
82 | O=C1CC(=O)N(c2ccccc2F)C(=S)N1 | > 4 mM (inactive)
83 | COc1cc2c(cc1OC)C(C)NCC2 (configuration not stated) | > 4 mM (inactive)
84 | Cc1ccc(-c2cc(C(=O)N3CCCC3)no2)cc1 | > 4 mM (inactive)
85 | Cc1nnc(SCc2cccs2)[nH]c1=O | > 4 mM (inactive)
86 | COc1nc(N2CCOCC2)nc(N)c1[N+](=O)[O-] | > 4 mM (inactive)
87 | O=C(NCc1ccccn1)c1ccccc1Cl | > 4 mM (inactive)
88 | CC(=O)Nc1ccc(NC(=O)C2CC2)cc1 | > 4 mM (inactive)
89 | Cn1c(=O)n(-c2cccc(Cl)c2)c(=O)n1C | > 4 mM (inactive)
90 | O=C(Nc1ccccc1)NC1CCS(=O)(=O)C1 (configuration not stated) | > 4 mM (inactive)
91 | CCCCN1C(=O)N(C)C2NC(=O)NC21 (configuration not stated) | > 4 mM (inactive)
92 | O=C(O)C1CCN(C(=O)c2cccs2)CC1 | > 4 mM (inactive)
93 | N=c1n(N)c2ccccc2n1CCO | > 4 mM (inactive)
94 | N[C@@H](Cc1cc(I)c(Oc2cc(I)c(O)c(I)c2)c(I)c1)C(=O)O | > 4 mM (inactive)
95 | COc1c2occc2cc2ccc(=O)oc12 | > 4 mM (inactive)
96 | Cn1cnnc1SCCCNC(=O)Nc1ncccn1 | > 4 mM (inactive)

Row | SMILES | Kd
97 | Cc1n[nH]c(C)c1CC(=O)O | > 4 mM (inactive)
98 | CC1(C)CC2C1CCC1(C)OC2(C)CCC1O (configuration not stated) | > 4 mM (inactive)
99 | CC(=O)C1CC[C@H]2C3CC[C@H]4C[C@H](O)CC[C@]4(C)C3CC[C@]12C (some centres not stated) | > 4 mM (inactive)
100 | C=C1C2CC[C@@]3(C)[C@H](c4ccoc4)OC(=O)C[C@]13O[C@H]1CC(=O)C(C)(C)C(CC(=O)OC)C21C (some centres not stated) | > 4 mM (inactive)
101 | NC(=O)c1ccccc1NC(=O)C1CCCO1 (configuration not stated) | > 4 mM (inactive)
102 | O=C(Cc1cccs1)Nc1ccccn1 | > 4 mM (inactive)
103 | Cc1ccc(CCNc2ccccc2)c[n+]1[O-] | > 4 mM (inactive)
104 | N#CCc1nc2ccccc2s1 | > 4 mM (inactive)
105 | O=C1NC(=O)C2C3C=CC(O3)C12 (configuration not stated) | > 4 mM (inactive)
106 | NN1C(=O)/C(=C/c2ccc(O)c(O)c2)SC1=S | > 4 mM (inactive)
107 | O=C(O)c1cc2ccccc2s1 | > 4 mM (inactive)
108 | CCC(C)C(=O)O[C@H]1[C@H](O)C2C(CN3CC(C)CCC3[C@@]2(C)O)C2C[C@]34O[C@]5(O)C(OC(=O)C(C)(O)C(C)O)CC[C@@]3(C)C5C(OC(C)=O)[C@@H](OC(C)=O)C4[C@@]21O (some centres not stated) | > 4 mM (inactive)
109 | C#CCCCCCCCCCCCC(=O)CC(O)COC(C)=O (configuration not stated) | > 4 mM (inactive)
110 | NC(=O)c1ccc(C(N)=O)cc1 | > 4 mM (inactive)
111 | CCCn1cnn2c(=O)cc(C)nc12 | > 4 mM (inactive)
112 | OCCOc1ccc(C2=NCCO2)cc1 | > 4 mM (inactive)
113 | CCCOn1nnnc1-c1ccccc1 | > 4 mM (inactive)
114 | O=C(Nc1cnccn1)c1cccc(C(F)(F)F)c1 | > 4 mM (inactive)
115 | S=c1[nH]nc(-c2cccnc2)n1Cc1ccccc1 | > 4 mM (inactive)
116 | COC(=O)C1=C(C)N(Cc2ccco2)C(=O)C1 | > 4 mM (inactive)
117 | COc1c2c(cc3c1OCO3)CCN(C)C2 | > 4 mM (inactive)
